Series [1] deals with MRSA ON184. Put plainly: MIC and checkerboard (FICI), planktonic cells. To be noted: for MIC: alone, 24 h, 37 °C. Format: cell-based, methicillin-resistant S. aureus. The protocol: (§1) The MIC was determined by the micro broth dilution method in 96-well plates. […] A 10 μL containing 1×10^5 bacterial cells or 2×10^3 fungal cells were added to each well. The inoculated plates were covered with a lid, sealed with Parafilm, and incubated for 24 h at 37 °C with slight rocking on a tilting platform shaker. After incubation, the optical density at 600 nm (OD 600) of the cultures in each well was measured using an xMark™ Microplate Absorbance Spectrophotometer (Bio-Rad). The MIC was defined as the lowest concentration of antimicrobial compound at which the culture OD600 values was similar to uninoculated control wells. MBCs and MFCs were determined by transferring 100 μL from each well with no apparent growth onto appropriate agar plates, followed by incubation for 24 h at 37 °C.
(§2) The concentrations of antimicrobials used were based on previously determined MIC values. […] Microtiter plates were incubated at 37 °C for 24 h, and the results were analyzed. Each test was performed in duplicate and included a growth control without the addition of any antimicrobials.

For series [2], the system named is preformed biofilms of test pathogens. In words: MBEC and FBEC index, 48 h old biofilms, summary over strains. Format: cell-based, bacterial and fungal strains. Particulars: alone: 4% tetrasodium EDTA, 50% ethanol, 100 μg/mL chlorhexidine HCl, 24 hours. The protocol:
The evaluation of the biofilm cultivation cell composition was evaluated using an MBEC Assay® biofilm inoculator, consisting of a polystyrene lid with 96 downward-protruding pegs and a corresponding base used to grow biofilms. A standardized inoculum was diluted in an appropriate biofilm growth medium to achieve a viable cell count of 1.5×10^6 CFU/mL of bacterial cells or 5×10^5 CFU/mL of fungal cells. Then, 150 μL of this inoculum was transferred into each appropriate well, and the peg lids were inserted into the microtiter plates. The plates were sealed with Parafilm and were incubated at optimum temperature for 48 h with slight rocking for bacteria and shaking at 200 rpm for fungal strains. After incubation, the peg lid was removed from the base and rinsed twice with sterile phosphate-buffered saline (PBS) for 2 min to remove loosely attached non-sessile cells. Before the antimicrobial challenge, the pegs in column 1 (n=8) were considered as the biofilm growth control; these pegs were removed from the lids, placed into 200 μL of recovery medium, and analyzed for starting biofilm cell numbers as described below. […] After the antimicrobial challenge, the pegs were rinsed twice with sterile PBS for 2 min and placed into a new 96-well plate containing 200 μL of recovery medium. The recovery plates were sealed with Parafilm, and biofilm cells were dislodged from the pegs by sonication for 30 min with a Branson 3510 bath sonicator. The biofilm cells in the recovery medium were serially diluted, and a drop dilution assay was performed to enumerate the viable cells.
In step (4), microtiter plates are incubated at 37 °C for 24 h. then (6), after incubation, the bacterial and fungal cells were dislodged from the pegs into the recovery medium described above.
Three 10-μL aliquots, for a total of 30 μL from each well of recovery medium, were spotted on MH agar plates and incubated for 24 hours at 37 °C. […] The FBEC determination is a modification of the FICI. […]

For series [3] the following is noted: high concentrations, ALS for CVADs; cited from earlier work.
In series [4] the test system is commonly encountered pathogens. To be noted: cited from earlier work.
Series [5] relates to MRSA ON184. Put plainly: MBC/MFC and FMCI, planktonic cells. Format: cell-based, methicillin-resistant S. aureus. To be noted: for MBC/MFC: alone. The protocol: as §1, §2
Series [6] relates to P. aeruginosa. To be noted: 40 mg/mL, locked for 21-25 h, catheter segments; cited from earlier work.
The conditions of series [7]: 40 mg/mL solution (4% solution) in distilled water; cited from earlier work.
Series [8] has as its system clinically relevant pathogens. Particulars: 4%; cited from earlier work.
The subject of series [9] is S. epidermidis. To be noted: 40 mg/mL, locked for 21-25 h, catheter segments; cited from earlier work.
Series [10] relates to E. coli. To be noted: 40 mg/mL, locked for 21-25 h, catheter segments; cited from earlier work.
In series [11] the test system is Klebsiella pneumoniae. Particulars: 40 mg/mL, locked for 21-25 h, catheter segments; cited from earlier work.
Series [12] has as its system C. albicans. To be noted: 40 mg/mL, locked for 21-25 h, catheter segments; cited from earlier work.

Structures are written as SMILES.

As to `CCO` [ET, ethanol], the MIC in combination in series [1] (TE + ET in combination) is given as 0.4%. In addition, the MIC in series [1] is 6.25%. For the same compound, in [2], the “eradication of all established biofilms” value is “able to eradicate all established biofilms”. Moreover, the adverse events result in [3] is “breaches in catheter integrity, systemic toxicity, and protein precipitation causing intraluminal occlusions”. Besides, in series [4], the “concentration required for a 3-log reduction” value is on record as at least 60%. Moreover, in series [5] (TE + ET in combination), the MBC/MFC in combination stood at 3.125%. The compound also displayed an MBC/MFC in series [5] of 25%.

With `O=C(O)CN(CCN(CC(=O)O)CC(=O)O)CC(=O)O.[Na].[Na].[Na].[Na]` [TE, tetrasodium ethylenediaminetetraacetic acid], the figures for the MIC in combination in series [1] (TE + CH in combination) and in series [1] (TE + ET in combination) were 0.008% and 0.015%, respectively. In addition, in [1], the MIC worked out at 0.063%. The biofilm colonization entry in series [6], in series [9], in series [10], in series [11] and in series [12] was “reduced biofilm colonization” in each case. Also, in [7], the pH was ~ 11.0. Moreover, the “biofilm eradication and microbial killing” value in series [8] is “biofilm eradication and microbial killing ability”. Further, the “eradication of all established biofilms” value in series [2] is reported as “able to eradicate all established biofilms”. Moreover, the MBC/MFC in combination in series [5] (TE + CH in combination) is reported as 0.125%; in series [5] (TE + ET in combination), 0.031%. In series [5], this compound registered an MBC/MFC of 2%.

(Values after patent US20260335495A1, “SYNERGISTIC ACTIVITY OF NOVEL COMPOUNDS AGAINST PLANKTONIC AND BIOFILM CELLS OF CLINICALLY RELEVANT PATHOGENS” (priority 2021, published 2026).)
